Measurements: publication PMC12203428, “Discovery of Clonixeril as a Sub-Femtomolar Modulator of the Human STING Receptor” (ACS Central Science, 2025)

What was measured:
[1] = tested on: hSTING phosphorylation (p-hSTING) in HEK293 cells; experiment: HEK293 pSTING Western blot with 2′,3′-cGAMP; assay type: cell-based, human
Description: Since phosphorylation of Ser366 of hSTING is a necessary step to initiate recruitment, subsequent docking, and phosphorylation of IRF3, we investigated whether CXL would affect hSTING phosphorylation levels in cellulo. Thus, HEK293 cells were treated with varying concentrations of CXL (1fM-1nM) for one hour prior to 2 μM 2′,3′-cGAMP treatment for 90 min (Figure A) or 2 h (Figure C). An optimized dose of 2 μM 2′,3′-cGAMP was based on a dose–response study done for this experiment. A control group was treated with vehicle for 1 h followed by 2 μM 2′,3′-cGAMP for 1 or 2 h (Figure C) Total protein lysates were collected and analyzed by Western blotting using antibodies against p-hSTING, hSTING, and β-actin.
HEK293 cells were seeded at 700,000 cells per 60 mm plate confluency and treated 36 h later. […] Vehicle control group was treated with Escort IV reagent and DMSO for 1 h prior to 2 μM 2′,3′-cGAMP (InvivoGen) for 1 h and 30 min using Escort IV transfection reagent. DMSO concentration was kept constant across all treatment groups. Total cell lysates were collected and analyzed by Western blotting using antibodies against p-STING, STING, and β-actin. […] Data points were analyzed with a one-way ANOVA test using PRISM9 statistical analysis software (GraphPad). A level of p < 0.05 was considered statistically significant.

[2] = target: T1, hSTING CTD (STING R232 variant) (Homo sapiens, UniProt Q86WV6, H232R); experiment: Microscale thermophoresis; assay type: binding; details: Log inhibitor versus response fit
T1 construct: 6X-His tagged hSTING^WT, R232 variant, CTD protein was purchased; purchased Invivogen (USA) or Cayman Chemicals (USA)
Description: Small molecule affinities at subpicomolar concentrations are typically difficult to determine by MST due to the inability of the detector to measure differential movement of proteins when largely disproportionate ratios of protein to ligand are involved. […] Generally, an IC50 correlates well with a K D when a small molecule competes for binding with a natural substrate for a target protein.
The resulting mixture was centrifuged at 12,000 x RPM 10 min prior to use. […] The samples were run again at 30- and 45 min. Detection of the protein was performed using the blue detection channel with excitation power set to 100% and MST set to high allowing 3 s prior to MST on to check for initial fluorescence differences, 35 s for thermophoresis, and 3 s for regeneration after MST off. Analysis was performed using M.O. Affinity Analysis Software with difference between initial fluorescence measured in the first 5 s as compared with thermophoresis at 30 s at 16 different analyte concentrations ranging from 100 μM to 100 zM and exported into Graphpad Prism v.8 using a Log inhibitor versus response for parameter fit.

[3] = tested on: hSTING WT pathway (THP1 Dual KI-hSTING-R232 cells, IRF3 luciferase reporter); experiment: THP-1 IRF3 luciferase inhibition assay with diABZI3 as activator; assay type: cell-based, human
Description: To validate our initial observations that CXL has extraordinary potency for a small molecule antagonist, we extended our THP-1 cell luciferase reporter experiment by using diABZI3 as an agonist and using BBCl-amidine (a previously reported STING antagonist) as an antagonist control. , Furthermore, because the results were so unprecedented, we conducted these experiments in a different laboratory (U. Mass Chan. vs Univ. So. FL) and with different individuals performing the experiments.
The cells were grown in RPMI 1640, 2 mM L-glutamine, 25 mM HEPES, 10% heat-inactivated fetal bovine serum, 100 μg/mL Normocin, and Pen-Strep (100 U/mL–100 μg/ mL). For selection, the cells were passaged with and without the addition of antibiotics (10 μg/mL Blasticidin and 100 μg/mL Zeocin) to the growth medium every other passage. […] The cells were counted in a cell counter to obtain a cell density of 1 × 10^6 cells/mL of the test media. […] QUANTI-Luc (InvivoGen) reagent was then diluted in 30 mL of water, 75 μL was added to each well, and luminescence was read immediately (PerkinElmer Envision 2105). The data were normalized to the DMSO only controls (without diABZI3 or 2′,3′-cGAMP), and percentage activation was calculated based on the diABZI3 or 2′,3′-cGAMP only control. […]

[4] = tested on: inflammation in rats; parameters: method as in not given; details: 30–300 mg/kg, ref not given, cited from earlier work

T1 sequence (Q86WV6 153-340 H232R): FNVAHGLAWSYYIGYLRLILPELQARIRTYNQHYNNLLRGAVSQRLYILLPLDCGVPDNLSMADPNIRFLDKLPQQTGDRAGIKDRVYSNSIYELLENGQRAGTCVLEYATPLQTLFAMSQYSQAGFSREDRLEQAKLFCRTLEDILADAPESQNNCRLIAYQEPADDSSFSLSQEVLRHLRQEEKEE

Cc1c(Cl)cccc1Nc1ncccc1C(=O)OCC(O)CO (stereo not shown) [CXL, clonixeril]
Effect on hSTING phosphorylation, CXL prior to 2′,3′-cGAMP ([1]; CXL 1 fM-1 nM 1 h, then 2 μM 2′,3′-cGAMP): downregulated hSTING phosphorylation close to near basal cellular levels
Effect on hSTING phosphorylation, 2′,3′-cGAMP prior to CXL ([1]; same concentration range): inhibitory activity was not observed
Hillslope (MST fit) [2]: −1.669
Response to diABZI3 with CXL 100 nM to 100 aM ([3]; 50 nM diABZI3): inverse dose response
Effect of higher concentrations of CXL on diABZI3 signal ([3]; 50 nM diABZI3, Figure 2C): enhancement of the diABZI3 signal
Ulcerogenic effects [4]: without producing significant ulcerogenic effects
Anti-inflammatory effect ([4]; oral): anti-inflammatory effects
